From ChEMBL document CHEMBL1201862, “PubChem BioAssay data set” (2004)
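Method: 48-hour compound exposure of cells in 96-well plates, five concentrations, linear interpolation of endpoints. GI50: concentration for 50% inhibition of growth.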 Activity calls are given as the source filed them. Cut-off read from the data, not from the text of the source: active = GI50 up to about 1.1 µM and inactive = higher.

Tests used:
Experiment in all cases: inhibition of tumour cell growth, NCI panel, 48 h
HL-60 = system: HL-60
HT-29 = system: HT-29
LOX IMVI = system: LOX IMVI
MDA-MB-231 = system: MDA-MB-231
MDA-N = system: MDA-N
MOLT-4 = system: MOLT-4
NCI-H226 = system: NCI-H226
OVCAR-3 = system: OVCAR-3
RXF 393 = system: RXF 393
SF-268 = system: SF-268
SF-295 = system: SF-295
SNB-19 = system: SNB-19
SR = system: SR
SW-620 = system: SW-620
T47D = system: T47D
TK-10 = system: TK-10
UACC-62 = system: UACC-62

Measured: GI50

N#Cc1c(=O)c2cccnc2n2c1[nH]c1ccccc12
inactive: HL-60 > 100 µM | HT-29 > 100 µM | LOX IMVI > 100 µM | MDA-MB-231 27 µM | MDA-N > 100 µM | MOLT-4 > 100 µM | NCI-H226 66.5 µM | OVCAR-3 78 µM | RXF 393 74.1 µM | SF-268 49.1 µM | SF-295 49.3 µM | SNB-19 57.7 µM | SR > 100 µM | SW-620 > 100 µM | T47D > 100 µM | TK-10 55.5 µM | UACC-62 > 100 µM

Cc1cnc(/N=c2\sc(C)cn2-c2ncc(C)s2)s1
inactive: HL-60 > 100 µM | HT-29 > 100 µM | LOX IMVI > 100 µM | MDA-MB-231 > 100 µM | MDA-N > 100 µM | MOLT-4 > 100 µM | NCI-H226 > 100 µM | OVCAR-3 > 100 µM | RXF 393 > 100 µM | SF-268 > 100 µM | SF-295 > 100 µM | SNB-19 > 100 µM | SR > 100 µM | SW-620 > 100 µM | T47D > 100 µM | TK-10 > 100 µM | UACC-62 > 100 µM

Cc1ccc(Cl)c2c1NC(=O)/C2=N\Nc1ccccc1[N+](=O)[O-]
inactive: HL-60 25.5 µM | HT-29 35.8 µM | LOX IMVI 25.6 µM | MDA-MB-231 75 µM | MDA-N 39.4 µM | MOLT-4 37.3 µM | NCI-H226 > 100 µM | OVCAR-3 27.3 µM | RXF 393 > 100 µM | SF-268 45.8 µM | SF-295 24.1 µM | SNB-19 68.4 µM | SR 8.22 µM | SW-620 27 µM | T47D 44.3 µM | TK-10 > 100 µM | UACC-62 31.4 µM

CC1(C)CC(=O)C2=C(C1)OC1=C(CC(C)(C)CC1=O)C2c1ccccc1[N+](=O)[O-] (configuration not stated)
inactive: HL-60 > 100 µM | HT-29 > 100 µM | LOX IMVI > 100 µM | MDA-MB-231 > 100 µM | MDA-N > 100 µM | MOLT-4 > 100 µM | NCI-H226 > 100 µM | OVCAR-3 > 100 µM | RXF 393 > 100 µM | SF-268 > 100 µM | SF-295 > 100 µM | SNB-19 > 100 µM | SR > 100 µM | SW-620 > 100 µM | T47D > 100 µM | TK-10 > 100 µM | UACC-62 > 100 µM

c1ccc(C(NC2=NCCO2)c2ccccc2)cc1
inactive: HL-60 > 10 µM | HT-29 > 10 µM | LOX IMVI > 10 µM | MDA-MB-231 > 10 µM | MDA-N > 10 µM | MOLT-4 > 10 µM | NCI-H226 > 10 µM | OVCAR-3 > 10 µM | RXF 393 > 10 µM | SF-268 > 10 µM | SF-295 9.33 µM | SNB-19 > 10 µM | SR > 10 µM | SW-620 > 10 µM | T47D > 10 µM | TK-10 > 10 µM | UACC-62 > 10 µM

c1ccc(CSC2(SCc3ccccc3)CCCC2)cc1
inactive: HL-60 > 10 µM | HT-29 > 10 µM | LOX IMVI > 10 µM | MDA-MB-231 > 10 µM | MDA-N > 10 µM | MOLT-4 > 10 µM | NCI-H226 > 10 µM | OVCAR-3 > 10 µM | RXF 393 > 10 µM | SF-268 > 10 µM | SF-295 > 10 µM | SNB-19 > 10 µM | SR > 10 µM | SW-620 > 10 µM | T47D > 10 µM | TK-10 > 10 µM | UACC-62 > 10 µM
